Results reported in US20020137929A1, “1 - (3-heterocyclylphenyl) isothiourea, -isourea, -guanidine and -amidine herbicidal agents” (Intellectual Property Department, BASF Aktiengesellschaft, priority 1998, published 2002).

What was measured:
[1] = system: CHEAL (Lambsquarters, Common); experiment: Preemergence herbicidal evaluation; format: in vivo, Chenopodium album; conditions: rated 4-5 weeks after treatment
From the text: (§1) Results of herbicide evaluation are expressed on a rating scale (0-9). The scale is based upon a visual observation of plant stand, vigor, malformation, size, chlorosis and overall plant appearance as compared with a control.
(§2) The preemergence herbicidal activity of the test compounds of the present invention is exemplified by the following tests in which the seeds of a variety of monocotyledonous and dicotyledonous plants are separately mixed with potting soil and planted on top of approximately one inch of soil in separate pint cups. After planting, the cups are sprayed with the selected aqueous acetone solution containing test compound in sufficient quantity to provide the equivalent of about 0.0156 to 0.500 kg per hectare of test compound per cup. The treated cups are then placed on greenhouse benches, watered and cared for in accordance with conventional greenhouse procedures. From four to five weeks after treatment, the tests are terminated and each cup is examined and rated according to the rating system provided in Example 37.
(§3) The compounds evaluated are reported by compound number given in Example 37.

ZEAMX (Corn, Field) [2] = experiment: Preemergence herbicidal evaluation; format: in vivo, Zea mays; conditions: rated 4-5 weeks after treatment
Summary of the method: (§4)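 Herbicidal effect scored visually, 0-9, at 4 to 5 weeks against a control; compound applied preemergence by aqueous acetone spray to seeded soil at about 0.0156 to 0.500 kg/ha.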

[3] = system: GLXMAW (Soybean, Williams); experiment: Preemergence herbicidal evaluation; format: in vivo, Glycine max, (L.) Merr. cv Williams; conditions: rated 4-5 weeks after treatment
From the text: as §1, §2, §3

[4] = system: TRZAWR (Wheat, Winter, cv Riband); experiment: Preemergence herbicidal evaluation; format: in vivo, Triticum aestivum; conditions: rated 4-5 weeks after treatment
Summary of the method: as §4

ECHCG (Barnyardgrass) [5] = experiment: Postemergence herbicidal evaluation; format: in vivo, Echinochloa crus-galli; conditions: postemergence
Summary of the method: (§5)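 Scores (0–9) reflect plant stand, vigor, malformation, size, chlorosis and general appearance relative to control, read 4 to 5 weeks after treatment and averaged where tests were repeated. Application: about 0.0156–0.500 kg/ha sprayed at 40 psi onto two-week seedlings.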

ZEAMX (Corn, Field) [6] = experiment: Postemergence herbicidal evaluation; format: in vivo, Zea mays; conditions: postemergence
Summary of the method: as §5

[7] = system: IPOHE (Morningglory, Ivyleaf); experiment: Preemergence herbicidal evaluation; format: in vivo, Ipomoea hederacea; conditions: rated 4-5 weeks after treatment
From the text: as §1, §2, §3

ECHCG (Barnyardgrass) [8] = experiment: Preemergence herbicidal evaluation; format: in vivo, Echinochloa crus-galli; conditions: rated 4-5 weeks after treatment
From the text: as §1, §2, §3

CASOB (Sicklepod) = experiment: Preemergence herbicidal evaluation; format: in vivo, Cassia obtusifolia; conditions: rated 4-5 weeks after treatment
Summary of the method: as §4

[9] = system: IPOHE (Morningglory, Ivyleaf); experiment: Postemergence herbicidal evaluation; format: in vivo, Ipomoea hederacea; conditions: postemergence
Summary of the method: as §5

ABUTH (Velvetleaf) [10] = experiment: Preemergence herbicidal evaluation; format: in vivo, Abutilon theophrasti; conditions: rated 4-5 weeks after treatment
From the text: as §1, §2, §3

[11] = system: CHEAL (Lambsquarters, Common); experiment: Postemergence herbicidal evaluation; format: in vivo, Chenopodium album; conditions: postemergence
Summary of the method: as §5

ABUTH (Velvetleaf) [12] = experiment: Postemergence herbicidal evaluation; format: in vivo, Abutilon theophrasti; conditions: postemergence
Summary of the method: as §5

SETVI (Foxtail, Green) = experiment: Postemergence herbicidal evaluation; format: in vivo, Setaria viridis; conditions: postemergence
Summary of the method: as §5

ORYSAT (Rice, Tebonnet) = experiment: Postemergence herbicidal evaluation; format: in vivo, Oryza sativa, (L.) Tebonnet; conditions: postemergence
Summary of the method: as §5

Cn1c(C(F)(F)F)cc(=O)n(-c2cc(N=C3SCC(=O)N3CC(=O)OC3CCCC3)c(Cl)cc2F)c1=O [Compound 120, Cyclopentyl 2-{{2-chloro-5-[3,6-dihydro-3-methyl-2,6-dioxo-4-(trifluoromethyl)-1(2H)-pyrimidinyl]-4-fluorophenyl}imino}-4-oxo-3-thiazolidineacetate]
Preemergence herbicidal rating CHEAL ([1]; rate 0.0156 kg/ha): 9.0 | Preemergence herbicidal rating CHEAL ([1]; rate 0.0313 kg/ha): 9.0 | Preemergence herbicidal rating CHEAL ([1]; rate 0.0625 kg/ha): 9.0 | Preemergence herbicidal rating CHEAL ([1]; rate 0.1250 kg/ha): 9.0 | Preemergence herbicidal rating CHEAL ([1]; rate 0.2500 kg/ha): 9.0 | Preemergence herbicidal rating ZEAMX (ZEAMX (Corn, Field) [2]; rate 0.0156 kg/ha): 0.0 | Preemergence herbicidal rating ZEAMX (ZEAMX (Corn, Field) [2]; rate 0.0313 kg/ha): 0.0 | Preemergence herbicidal rating ZEAMX (ZEAMX (Corn, Field) [2]; rate 0.0625 kg/ha): 0.0 | Preemergence herbicidal rating ZEAMX (ZEAMX (Corn, Field) [2]; rate 0.1250 kg/ha): 0.0 | Preemergence herbicidal rating ZEAMX (ZEAMX (Corn, Field) [2]; rate 0.2500 kg/ha): 3.0 | Preemergence herbicidal rating GLXMAW ([3]; rate 0.0156 kg/ha): 0.0 | Preemergence herbicidal rating GLXMAW ([3]; rate 0.0313 kg/ha): 0.0 | Preemergence herbicidal rating GLXMAW ([3]; rate 0.0625 kg/ha): 0.0 | Preemergence herbicidal rating GLXMAW ([3]; rate 0.1250 kg/ha): 0.0 | Preemergence herbicidal rating GLXMAW ([3]; rate 0.2500 kg/ha): 3.0 | Preemergence herbicidal rating TRZAWR ([4]; rate 0.0156 kg/ha): 0.0 | Preemergence herbicidal rating TRZAWR ([4]; rate 0.0313 kg/ha): 0.0 | Preemergence herbicidal rating TRZAWR ([4]; rate 0.0625 kg/ha): 0.0 | Preemergence herbicidal rating TRZAWR ([4]; rate 0.1250 kg/ha): 0.0 | Preemergence herbicidal rating TRZAWR ([4]; rate 0.2500 kg/ha): 4.0 | Herbicidal rating ECHCG (ECHCG (Barnyardgrass) [5]; rate 0.0156 kg/ha): 1.0 | Herbicidal rating ECHCG (ECHCG (Barnyardgrass) [5]; rate 0.0313 kg/ha): 2.0 | Herbicidal rating ECHCG (ECHCG (Barnyardgrass) [5]; rate 0.0625 kg/ha): 5.0 | Herbicidal rating ZEAMX (ZEAMX (Corn, Field) [6]; rate 0.0156 kg/ha): 6.0 | Herbicidal rating ZEAMX (ZEAMX (Corn, Field) [6]; rate 0.0313 kg/ha): 7.0 | Herbicidal rating ZEAMX (ZEAMX (Corn, Field) [6]; rate 0.0625 kg/ha): 8.0 | Preemergence herbicidal rating IPOHE ([7]; rate 0.0156 kg/ha): 0.0 | Preemergence herbicidal rating IPOHE ([7]; rate 0.0313 kg/ha): 0.0 | Preemergence herbicidal rating IPOHE ([7]; rate 0.0625 kg/ha): 0.0 | Preemergence herbicidal rating IPOHE ([7]; rate 0.1250 kg/ha): 4.0 | Preemergence herbicidal rating IPOHE ([7]; rate 0.2500 kg/ha): 9.0 | Preemergence herbicidal rating ECHCG (ECHCG (Barnyardgrass) [8]; rate 0.0156 kg/ha): 0.0 | Preemergence herbicidal rating ECHCG (ECHCG (Barnyardgrass) [8]; rate 0.0313 kg/ha): 0.0 | Preemergence herbicidal rating ECHCG (ECHCG (Barnyardgrass) [8]; rate 0.0625 kg/ha): 0.0 | Preemergence herbicidal rating ECHCG (ECHCG (Barnyardgrass) [8]; rate 0.1250 kg/ha): 0.0 | Preemergence herbicidal rating ECHCG (ECHCG (Barnyardgrass) [8]; rate 0.2500 kg/ha): 2.0 | Preemergence herbicidal rating CASOB (CASOB (Sicklepod); rate 0.0156 kg/ha): 0.0 | Preemergence herbicidal rating CASOB (CASOB (Sicklepod); rate 0.0313 kg/ha): 0.0 | Preemergence herbicidal rating CASOB (CASOB (Sicklepod); rate 0.0625 kg/ha): 3.0 | Preemergence herbicidal rating CASOB (CASOB (Sicklepod); rate 0.1250 kg/ha): 4.0 | Preemergence herbicidal rating CASOB (CASOB (Sicklepod); rate 0.2500 kg/ha): 4.0 | Herbicidal rating IPOHE ([9]; rate 0.0156 kg/ha): 9.0 | Herbicidal rating IPOHE ([9]; rate 0.0313 kg/ha): 9.0 | Herbicidal rating IPOHE ([9]; rate 0.0625 kg/ha): 9.0 | Preemergence herbicidal rating ABUTH (ABUTH (Velvetleaf) [10]; rate 0.0156 kg/ha): 0.0 | Preemergence herbicidal rating ABUTH (ABUTH (Velvetleaf) [10]; rate 0.0313 kg/ha): 9.0 | Preemergence herbicidal rating ABUTH (ABUTH (Velvetleaf) [10]; rate 0.0625 kg/ha): 9.0 | Preemergence herbicidal rating ABUTH (ABUTH (Velvetleaf) [10]; rate 0.1250 kg/ha): 9.0 | Preemergence herbicidal rating ABUTH (ABUTH (Velvetleaf) [10]; rate 0.2500 kg/ha): 9.0 | Herbicidal rating CHEAL ([11]; rate 0.0156 kg/ha): 9.0 | Herbicidal rating CHEAL ([11]; rate 0.0313 kg/ha): 9.0 | Herbicidal rating CHEAL ([11]; rate 0.0625 kg/ha): 9.0 | Herbicidal rating ABUTH (ABUTH (Velvetleaf) [12]; rate 0.0156 kg/ha): 9.0 | Herbicidal rating ABUTH (ABUTH (Velvetleaf) [12]; rate 0.0313 kg/ha): 9.0 | Herbicidal rating ABUTH (ABUTH (Velvetleaf) [12]; rate 0.0625 kg/ha): 9.0 | Herbicidal rating SETVI (SETVI (Foxtail, Green); rate 0.0156 kg/ha): 4.0 | Herbicidal rating SETVI (SETVI (Foxtail, Green); rate 0.0313 kg/ha): 9.0 | Herbicidal rating SETVI (SETVI (Foxtail, Green); rate 0.0625 kg/ha): 9.0 | Herbicidal rating ORYSAT (ORYSAT (Rice, Tebonnet); rate 0.0156 kg/ha): 2.0 | Herbicidal rating ORYSAT (ORYSAT (Rice, Tebonnet); rate 0.0313 kg/ha): 2.5 | Herbicidal rating ORYSAT (ORYSAT (Rice, Tebonnet); rate 0.0625 kg/ha): 2.5
